pIC50: −log10 of the molar value.
How the values were obtained:
[1] = biological target: HIV-1 integrase (Human immunodeficiency virus 1); test: In vitro inhibitory concentration against HIV-1 recombinant integrase activity in standard 3'-processing assay
[2] = biological target: HIV-1 integrase (Human immunodeficiency virus 1); test: In vitro inhibitory concentration against HIV-1 recombinant integrase activity in strand transfer assay

pIC50 [1]: < 4.00
pIC50 [2]: < 4.00
SMILES: O=C(c1ccc(O)cc1)c1ccc2ccc(/C=C/c3ccc(O)c(O)c3)nc2c1O [{2-[(E)-2-(3,4-Dihydroxy-phenyl)-vinyl]-8-hydroxy-quinolin-7-yl}-(4-hydroxy-phenyl)-methanone]

From BindingDB's records for doi:10.1016/j.bmcl.2005.06.036 (Unit&#233, 2005)
